Experimental data from patent US9072293B2, “Cyclopropenes and method for applying cyclopropenes to agricultural products or crops” (Erum Biotechnologies Inc., priority 2010, dated 2015).
Values joined by “and” are separate entries in the source; they are usually repeats but may differ in a detail not shown here. Equal values may be shown once.

Key:
[1] = Relative chemical stability of cyclopropenes measured by 1H-NMR; type: physicochemical; details: for Stability (relative chemical stability, based on cyclopropenes having a chain length of 1): 1H-NMR, CDCl3, stored at −20° C. or room temperature, relative to chain length 1
In short: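 Compounds in CDCl3 NMR tubes stored at −20° C. or room temperature and followed by 1H-NMR. Integrals of characteristic 1-alkylcyclopropene peaks (4–6.5 ppm, 1H; 0.8–0.9 ppm, 2H) compared against 1,1,3,3-tetramethylurea internal standard (2.80 ppm); stability expressed relative to chain-length-1 analogue.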

tomato [2] = test: Experimental Example 1: Efficacy test on tomato using emulsion (reddening grade); type: in vivo; details: individual tomatoes n=4
Experimental: In situ, a 1.0 mM 1-octylcyclopropene formulation was prepared using (trans)-1-octyl-1-(methanesulfonyloxy)-2-(trimethylsilyl)cyclopropane of Preparation Example 10 in the same manner as in Example 7. This solution was diluted to 1 to 100 times prior to use, as necessary. Experimental Example 1: Efficacy test on tomato using emulsion 1.0 mM formulations of five agents such as 1-(2-phenylethyl)cyclopropene, 1-(3-phenylpropyl)cyclopropene, 1-(4-phenylbutyl)cyclopropene, 1-(5-phenylpentyl)cyclopropene and 1-hexylcyclopropene were prepared in the same manner as in Example 1, and 1.0 mM and 100 μM solutions were prepared therefrom. Then, the effects of the solutions were compared with non-treated groups and control groups in which a surfactant or a stabilizing agent (sodium dodecylbenzenesulfonate or tristyrenylphenykethoxy)12ethanol) is dissolved.
Tomatoes whose top end began to turn pink were screened, harvested and divided into 12 groups (n=4) in total, i.e., non-treated groups, control groups (surfactant) and agent groups with different concentrations such as 100 μM and 1.0 mM. Tomatoes were treated with the prepared agent formulation using a household sprayer such that the surface thereof was saturated. The tomatoes were stood at room temperature (25-30° C.) for 3 days and a reddening level thereof was evaluated based on grades of 0 to 5.
(§1) At this time, the tops of tomatoes most early turned red, while the bottoms thereof most lately turned red. For this reason, in order to accurately evaluate the difference in reddening, the coloring evaluated was based on the area of red color, rather than the color of tomatoes. […] Accordingly, the grade level is proportional to the rate at which the tomatoes ripened.

tomato [3] = test: Experimental Example 2: Efficacy test on tomato using oil based formulation (reddening grade); type: in vivo; details: 1.0 mM oil-based formulation, individual tomatoes n=4
Source text: as §1
As illustrated in Example 1, in situ, in accordance with the methods of Preparation Examples 15, 16, 17, 18 and 22, five agents (1.0 mmol) such as 1-(2-phenylethyl)cyclopropene, 1-(3-phenylpropyl)cyclopropene, 1-(4-phenylbutyl)cyclopropene, 1-(5-phenylpentyl)cyclopropene and 1-hexylcyclopropene were prepared, 5.0 ml of xylene and 5.0 ml of water were added to the reaction solution, vigorously stirred for 5 minutes and stood. When the mixture was separated into an organic layer (upper layer) and an aqueous layer (lower layer), only the organic layer was collected and the aqueous layer was discarded. […] of hexane was added to the organic layer and homogeneously mixed to prepare a 1.0 mM oil-based formulation.
The tomatoes were screened in the same manner as in Experimental Example 1 and divided into 7 groups (n=4) including a non-treated group, a control group (solvent-treated group) and 5 agent groups. Tomatoes were treated with the previously prepared agent using a household sprayer such that the surface thereof was saturated. The tomatoes were stood at room temperature (25-30° C.) for 3 days and a reddening level thereof was evaluated based on grades of 0 to 5.

[4] = 100 μM, Day 0, room temperature (25-30° C.)
[5] = 100 μM, Day 1, room temperature (25-30° C.)
[6] = 100 μM, Day 2, room temperature (25-30° C.)
[7] = 100 μM, Day 3, room temperature (25-30° C.)
[8] = 1.0 mM, Day 0, room temperature (25-30° C.)
[9] = 1.0 mM, Day 1, room temperature (25-30° C.)
[10] = 1.0 mM, Day 2, room temperature (25-30° C.)
[11] = 1.0 mM, Day 3, room temperature (25-30° C.)
[12] = Day 0, room temperature (25-30° C.)
[13] = Day 1, room temperature (25-30° C.)
[14] = Day 2, room temperature (25-30° C.)
[15] = Day 3, room temperature (25-30° C.)

Row | SMILES | chemical stability (in words) [1] | Stability (relative chemical stability, based on cyclopropenes having a chain length of 1) [1] | reddening level (grade 0 to 5) (tomato [2]; [4]) | reddening level (grade 0 to 5) (tomato [2]; [5]) | reddening level (grade 0 to 5) (tomato [2]; [6]) | reddening level (grade 0 to 5) (tomato [2]; [7]) | reddening level (grade 0 to 5) (tomato [2]; [8]) | reddening level (grade 0 to 5) (tomato [2]; [9]) | reddening level (grade 0 to 5) (tomato [2]; [10]) | reddening level (grade 0 to 5) (tomato [2]; [11]) | Tomato results: reddening level (grade 0 to 5) (tomato [3]; [12]) | Tomato results: reddening level (grade 0 to 5) (tomato [3]; [13]) | Tomato results: reddening level (grade 0 to 5) (tomato [3]; [14]) | Tomato results: reddening level (grade 0 to 5) (tomato [3]; [15])
1 | C1=C(CCCCCc2ccccc2)C1 [(5-Phenylpentyl), 1-(5-phenylpentyl)cyclopropene] | much more stable | >>10 | 0 (an area in which the surface of tomato was colored in pink was 10% or less) (2×) and 1 (an area in which the surface of tomato was completely colored in red was 10 to 40%) and 2 (an area in which the surface of tomato was completely colored in red was 40 to 70%) | 0 (an area in which the surface of tomato was colored in pink was 10% or less) (2×) and 2 (an area in which the surface of tomato was completely colored in red was 40 to 70%) (2×) | 0 (an area in which the surface of tomato was colored in pink was 10% or less) and 1 (an area in which the surface of tomato was completely colored in red was 10 to 40%) and 3 (an area in which the surface of tomato was completely colored in red was 70% or more and the bottom area remained green) (2×) | 1 (an area in which the surface of tomato was completely colored in red was 10 to 40%) and 2 (an area in which the surface of tomato was completely colored in red was 40 to 70%) and 3 (an area in which the surface of tomato was completely colored in red was 70% or more and the bottom area remained green) and 4 | 0 (an area in which the surface of tomato was colored in pink was 10% or less) (2×) and 1 (an area in which the surface of tomato was completely colored in red was 10 to 40%) and 2 (an area in which the surface of tomato was completely colored in red was 40 to 70%) | 0 (an area in which the surface of tomato was colored in pink was 10% or less) (2×) and 1 (an area in which the surface of tomato was completely colored in red was 10 to 40%) and 2 (an area in which the surface of tomato was completely colored in red was 40 to 70%) | 0 (an area in which the surface of tomato was colored in pink was 10% or less) (2×) and 1 (an area in which the surface of tomato was completely colored in red was 10 to 40%) and 2 (an area in which the surface of tomato was completely colored in red was 40 to 70%) | 0 (an area in which the surface of tomato was colored in pink was 10% or less) and 1 (an area in which the surface of tomato was completely colored in red was 10 to 40%) and 2 (an area in which the surface of tomato was completely colored in red was 40 to 70%) and 3 (an area in which the surface of tomato was completely colored in red was 70% or more and the bottom area remained green) | 0 (an area in which the surface of tomato was colored in pink was 10% or less) (2×) and 1 (an area in which the surface of tomato was completely colored in red was 10 to 40%) and 2 (an area in which the surface of tomato was completely colored in red was 40 to 70%) | 0 (an area in which the surface of tomato was colored in pink was 10% or less) (2×) and 1 (an area in which the surface of tomato was completely colored in red was 10 to 40%) and 2 (an area in which the surface of tomato was completely colored in red was 40 to 70%) | 0 (an area in which the surface of tomato was colored in pink was 10% or less) and 1 (an area in which the surface of tomato was completely colored in red was 10 to 40%) and 2 (an area in which the surface of tomato was completely colored in red was 40 to 70%) and 3 (an area in which the surface of tomato was completely colored in red was 70% or more and the bottom area remained green) | 1 (an area in which the surface of tomato was completely colored in red was 10 to 40%) (2×) and 3 (an area in which the surface of tomato was completely colored in red was 70% or more and the bottom area remained green) and 4
2 | C1=C(CCCc2ccccc2)C1 [(3-Phenylpropyl), 1-(3-phenylpropyl)cyclopropene] | much more stable | >>10 | 0 (an area in which the surface of tomato was colored in pink was 10% or less) (2×) and 1 (an area in which the surface of tomato was completely colored in red was 10 to 40%) and 2 (an area in which the surface of tomato was completely colored in red was 40 to 70%) | 1 (an area in which the surface of tomato was completely colored in red was 10 to 40%) (3×) and 2 (an area in which the surface of tomato was completely colored in red was 40 to 70%) | 1 (an area in which the surface of tomato was completely colored in red was 10 to 40%) (2×) and 2 (an area in which the surface of tomato was completely colored in red was 40 to 70%) and 3 (an area in which the surface of tomato was completely colored in red was 70% or more and the bottom area remained green) | 2 (an area in which the surface of tomato was completely colored in red was 40 to 70%) (2×) and 3 (an area in which the surface of tomato was completely colored in red was 70% or more and the bottom area remained green) and 4 | 0 (an area in which the surface of tomato was colored in pink was 10% or less) (2×) and 1 (an area in which the surface of tomato was completely colored in red was 10 to 40%) and 2 (an area in which the surface of tomato was completely colored in red was 40 to 70%) | 0 (an area in which the surface of tomato was colored in pink was 10% or less) (2×) and 1 (an area in which the surface of tomato was completely colored in red was 10 to 40%) and 2 (an area in which the surface of tomato was completely colored in red was 40 to 70%) | 1 (an area in which the surface of tomato was completely colored in red was 10 to 40%) (2×) and 0 (an area in which the surface of tomato was colored in pink was 10% or less) and 3 (an area in which the surface of tomato was completely colored in red was 70% or more and the bottom area remained green) | 1 (an area in which the surface of tomato was completely colored in red was 10 to 40%) (2×) and 2 (an area in which the surface of tomato was completely colored in red was 40 to 70%) and 3 (an area in which the surface of tomato was completely colored in red was 70% or more and the bottom area remained green) | 0 (an area in which the surface of tomato was colored in pink was 10% or less) (2×) and 1 (an area in which the surface of tomato was completely colored in red was 10 to 40%) and 2 (an area in which the surface of tomato was completely colored in red was 40 to 70%) | 0 (an area in which the surface of tomato was colored in pink was 10% or less) (2×) and 1 (an area in which the surface of tomato was completely colored in red was 10 to 40%) and 2 (an area in which the surface of tomato was completely colored in red was 40 to 70%) | 0 (an area in which the surface of tomato was colored in pink was 10% or less) (2×) and 1 (an area in which the surface of tomato was completely colored in red was 10 to 40%) and 3 (an area in which the surface of tomato was completely colored in red was 70% or more and the bottom area remained green) | 1 (an area in which the surface of tomato was completely colored in red was 10 to 40%) (2×) and 2 (an area in which the surface of tomato was completely colored in red was 40 to 70%) and 4
